From patent publication US9260481B2, “Peptide derivatives as antibiotics” (priority 2011, dated 2016)
≈ marks a conversion by molar mass, not a printed value. Numbered stars: 1 amine (or outer) side, 2 acyl side, 3 side chain; on linkers, the order of the positions; unused ones are H or OH. Square brackets hold non-standard residues; d marks the D form. Peptide text beside a SMILES is read from it. * marks the point of attachment. ξ: configuration not given here. X1 = NCC(O)CCC(N[*:1])C(=O)[*:2]; ΔZArg = N=C(N)NCC/C=C(\N)C(=O)O; ξDab(3-OH) = NCC(O)C(N)C(=O)O; Orn = NCCC[CH](N)C(=O)O; NH(CH2)4NH2 = NCCCCN*

What was measured:
S. aureus ATCC 13709 [1] = test: Bacterial killing curves (time-to-kill); type: cell-based, Staphylococcus aureus; details: growing S. aureus ATCC 13709, at four-fold the MIC
Procedure: (§1) Bacterial killing curves were carried out by inoculating S. aureus ATCC 13709 and P. aeruginosa ATCC 27853 with Odilomycin A concentration equal to four-fold the MIC. […] S. aureus and P. aeruginosa inoculi were prepared from colonies grown overnight in MHB. Antibiotics concentrations in the flask were adjusted in MHB according to the desired concentration. Culture tubes containing 10 mL were inoculated with S. aureus or P. aeruginosa at an approximate inoculum of 10^5 CFU/mL. Samples were drawn and bacteria were counted at 0, 1, 2, 3, 4, 6 and 24 h of incubation at 37° C. Thus, after vortexing the culture tubes, two 50 μL samples were removed and serially diluted with MHB. After each dilution step, 20 μL was plated onto LB agar plates, which were incubated for 24 h at 37° C. Afterwards the colonies were counted and back-extrapolated to the original volume to determine the initial concentration (CFU/mL).

P. aeruginosa ATCC 27853 [2] = type: cell-based, Pseudomonas aeruginosa; details: ATCC 27853, 24 h
Procedure: (§2) Minimal bactericidal concentrations (MBCs) were established by extending the MIC procedure to the evaluation of bactericidal activity. After 24 hours, 10 μL were drawn from the wells, serially diluted and then spotted onto suitable agar plates. The plates were incubated at 37° C. overnight. […] All the experiments were done in triplicate.

[3] = system: S. aureus Smith ATCC 13709; test: Acute lethal infection in mice; type: in vivo, ICR mice; details: for Survival of all treated mice: S. aureus infection; for Animal deaths Day 0 / Animal deaths Day 1 / Animal deaths Day 3 / Animal deaths Day 4 / Animal deaths Day 5 / Animal deaths Day 2: mice, S. aureus 5 log10 CFU/mouse IP, n=6
Procedure: Female ICR mice ordered from Harlan Laboratories (Indianapolis, Ind.) weighing 19-21 g were used in experiments of acute lethal infection. Mice were fully immunocompetent. Infection was induced by inoculating intraperitoneally in mice a bacterial suspension of S. aureus Smith ATCC 13709. The bacterial challenges (ca 5 log10 CFU/mouse) were given suspended in 0.5 mL of 20% hog mucin. […] Mortality was tracked out to 5 days post challenge. Animals that remained surviving at the end of the study were humanely euthanized.

S. aureus ATCC 13709 [4] = type: cell-based, Staphylococcus aureus; details: ATCC 13709, 24 h
Procedure: as §2

Enterococcus faecium = system: Enterococcus faecium
Procedure: (§3) The minimal inhibitory concentrations (MIC) were determined according to the Clinical and Laboratory Standards Institute (CLSI) conditions guidelines detailed in Table 7. Assays were performed in triplicate.
(§4) Preparation of Inocula. Five to 10 well-isolated colonies were picked and resuspended in 3 ml sterile saline. The inoculum was re-suspended by vigorous shaking on a vortex mixer for 15 s. Turbidity was adjusted to McFarland standard 0.5 ([…]). The inoculum was further diluted in the appropriate media (Table 7) to give a final inoculum in each well of ˜2-8×10^5 CFU/ml.
(§5) Addition of Test Article. Stock solutions of Odilomycin A or comparator were diluted in the appropriate media to give a maximum starting concentration of 50 μg/mL in the assay. 50 μL of medium was dispensed into each well in columns two to 12 of a 96 well plate. 100 μL of the appropriate test compound solution (100 μg/mL) was dispensed into each well in column one. In the case of M. catarrhalis, M. haemolytica and P. multocida these values were doubled (a final assay volume of 200 μL was used). […] Columns 11 and 12 served as positive (no drug or test article, inoculum added), and negative (no drug, test article, or inoculum added) growth controls respectively.
(§6) Addition of Bacterial Strains. 50 μL of each inoculum suspension was added to the appropriate wells, resulting in a final volume of 100 μL consisting of 50 μL diluted compound or diluents, and 50 μL of inoculum or broth alone.

[5] = system: Stenotrophomonas maltophilia
Procedure: as §3, §4, §5, §6

Proprionibacterium acnes = details: P. acnes ATCC 6919
Procedure: as §3, §4, §5, §6

Acinetobacter baumannii = system: Acinetobacter baumannii
Procedure: as §3, §4, §5, §6

Haemophilus influenzae = system: Haemophilus influenzae
Procedure: as §3, §4, §5, §6

Klebsiella oxytoca = system: Klebsiella oxytoca
Procedure: as §3, §4, §5, §6

Bacillus subtilis = system: Bacillus subtilis
Procedure: as §3, §4, §5, §6

Enterobacter cloacae = system: Enterobacter cloacae
Procedure: as §3, §4, §5, §6

Moraxella catarrhalis = system: Moraxella catarrhalis
Procedure: as §3, §4, §5, §6

Streptococcus pyogenes = system: Streptococcus pyogenes
Procedure: as §3, §4, §5, §6

Streptococcus pneumonia = system: Streptococcus pneumonia
Procedure: as §3, §4, §5, §6

Klebsiella pneumoniae = details: K. pneumoniae
Procedure: as §3, §4, §5, §6

S. aureus ATCC 13709 [6] = test: MBC in presence of human serum; type: cell-based, Staphylococcus aureus; details: for MBC S. aureus ATCC 13709: unit not given (Table 10: μg/mL)
Procedure: as §2
MBCs were also determined in presence of 50% and 95% (v/v) of human serum to assess protein binding.

S. aureus ATCC 25923 = type: cell-based, Staphylococcus aureus; details: ATCC 25923
From the text: Vancomycin, rifampicin, kanamycin, gentamicin, ampicillin, ciprofloxacin and tetracycline (Sigma-Aldrich) were provided as standard powders by the manufacturers.

P. aeruginosa ATCC 27853 [7] = test: Bacterial killing curves (time-to-kill); type: cell-based, Pseudomonas aeruginosa; details: growing P. aeruginosa ATCC 27853, at four-fold the MIC
Procedure: as §1

[8] = Odilomycin A 1.0 mg/kg IV at 1 hr
[9] = Odilomycin A 2.5 mg/kg IV at 1 hr
[10] = Odilomycin A 5.0 mg/kg IV at 1 hr

`N=C(N)NCC/C=C(\NC(=O)C(CCC(O)CN)NC(=O)C(Cc1cnc[nH]1)NC(=O)C1CCCN1C(=O)C(CCCN)NC(=O)CNC(=O)C(NC(=O)C(NC(=O)C(N)CCCCN)C(O)CN)C(O)CN)C(=O)NC(CCC(O)CN)C(=O)NCCCCN` (stereo not drawn) [Odilomycin A, Lys-(3-hydroxy-2,4-diaminobutanoic acid)-(3-hydroxy-2,4-diaminobutanoic acid)-Gly-Ornithine-Pro-His-(5-hydroxylysine)-(2,3-dehydroarginine)-(5-hydroxylysine)-(1,4-diaminobutane)] (H-K[ξDab(3-OH)][ξDab(3-OH)]G[Orn]PH[X1][ΔZArg][X1]-{NH(CH2)4NH2}; configuration not given here) was tested, and the “Time to kill 100% of bacteria” value (S. aureus ATCC 13709 [1]) was no more than 3 h, the MBC (P. aeruginosa ATCC 27853 [2]) was 6.25 mg/L (≈ 4.82 µM) and the “Survival of all treated mice” value ([3]; Odilomycin A 2.5 mg/kg IV) was “survived up to 5 days after infection”. The “Survival of all treated mice” value ([3]; Odilomycin A 5.0 mg/kg IV) was “survived up to 5 days after infection”, the “Animal deaths Day 0” value [3, 8] was 0 and the “Animal deaths Day 1” value [3, 8] was 0. The “Animal deaths Day 3” value [3, 8] was 0, the “Animal deaths Day 4” value [3, 8] was 0 and the “Animal deaths Day 5” value [3, 8] was 0. For the same compound, the “Animal deaths Day 0” value [3, 9] was 0, the “Animal deaths Day 1” value [3, 9] was 0 and the “Animal deaths Day 2” value [3, 9] was 0. The “Animal deaths Day 3” value [3, 9] was 0, the “Animal deaths Day 4” value [3, 9] was 0 and the “Animal deaths Day 5” value [3, 9] was 0. The “Animal deaths Day 0” value [3, 10] was 0, the “Animal deaths Day 1” value [3, 10] was 0 and the “Animal deaths Day 2” value [3, 10] was 0. The “Animal deaths Day 3” value [3, 10] was 0, the “Animal deaths Day 4” value [3, 10] was 0 and the “Animal deaths Day 5” value [3, 10] was 0. For the same compound, the MBC (S. aureus ATCC 13709 [4]) was 0.78 mg/L (≈ 0.602 µM), the MIC (Enterococcus faecium) was 25.0 mg/L (≈ 19.3 µM) and the “antibacterial activity” value (Enterococcus faecium; E. faecium) was “Weak or no antibacterial activity”. For the same compound, the MIC [5] was 6.25 mg/L (≈ 4.82 µM), the “MICs” value [5] was less than 10 µg/mL and the MIC (Proprionibacterium acnes) was 3.13 mg/L (≈ 2.41 µM). For the same compound, the MIC (Acinetobacter baumannii) was 6.25 mg/L (≈ 4.82 µM), the “MICs” value (Acinetobacter baumannii) was less than 10 µg/mL and the MIC (Haemophilus influenzae) was 12.5 mg/L (≈ 9.64 µM). For the same compound, the MIC (Klebsiella oxytoca) was 0.39 mg/L (≈ 0.301 µM), the “antibacterial activity” value (Klebsiella oxytoca; K. oxytoca) was “strong” and the MIC (Bacillus subtilis) was less than 0.20 mg/L. The “MICs” value (Bacillus subtilis) was less than 1 µg/mL, the MIC (Enterobacter cloacae) was 1.56 mg/L (≈ 1.2 µM) and the “MICs” value (Enterobacter cloacae) was less than 10 µg/mL. The MIC (Moraxella catarrhalis) was 1.56 mg/L (≈ 1.2 µM), the “MICs” value (Moraxella catarrhalis) was less than 10 µg/mL and the MIC (Streptococcus pyogenes) was 50.0 mg/L (≈ 38.6 µM). For the same compound, the “antibacterial activity” value (Streptococcus pyogenes; S. pyogenes) was “Weak or no antibacterial activity”, the MIC (Streptococcus pneumonia) was greater than 50.0 mg/L and the “antibacterial activity” value (Streptococcus pneumonia; S. pneumoniae) was “Weak or no antibacterial activity”. For the same compound, the “antibacterial activity” value (Klebsiella pneumoniae) was “strong”, the “effect of serum proteins on antibacterial activity” value (S. aureus ATCC 13709 [6]; 50% and 95% (v/v) human serum, S. aureus ATCC 13709) was “weakly affected” and the “MBC S. aureus ATCC 13709” value (S. aureus ATCC 13709 [6]; Serum 0 % (v/v)) was 0.78. For the same compound, the “MBC S. aureus ATCC 13709” value (S. aureus ATCC 13709 [6]; human serum 50 % (v/v)) was 1.56, the “MBC S. aureus ATCC 13709” value (S. aureus ATCC 13709 [6]; human serum 95 % (v/v)) was 1.56 and the MIC antibiotic alone (S. aureus ATCC 25923) was 0.39 mg/L (≈ 0.301 µM). The “Time to kill 100% of bacteria” value (P. aeruginosa ATCC 27853 [7]) was no more than 2 h.
